Laboratory results published in patent US11319347B2, “Peptide compound and method for producing same, composition for screening use, and method for selecting peptide compound” (FUJIFILM Corporation, priority 2017, dated 2022).
Starred links: 1 amine or outer side, 2 acyl side, 3 side chain; linkers in the order of their positions; H or OH if unused. Positions of bridges follow the written chain, without caps; N, C: chain ends. Non-standard residues stand in square brackets, D forms with d. Residues, ends and D or L forms follow the SMILES beside them. Phe(3-(4R-CO-2-thiazolinyl)) = O=C([C@H](Cc1cccc(C2=N[C@H](C(=O)[*:3])CS2)c1)N[*:1])[*:2]; dCha = N[C@H](CC1CCCCC1)C(=O)O; Nle = CCCC[C@H](N)C(=O)O

Assay: Membrane permeability of synthesized cyclic peptides by PAMPA (Measurement Method A: 1 μmol/L; Method B: 10 μmol/L)
Type: in vitro ADME
Settings: Measurement method A, 25° C., 4 hours
Description: Evaluation of membrane permeability of synthesized cyclic peptide by PAMPA method In order to compare and examine the membrane permeability of the synthesized cyclic peptide, parallel artificial membrane permeability assay (PAMPA) was carried out.
An artificial phospholipid membrane was produced by adding 5 μL of a phospholipid organic solvent solution consisting of L-α-phosphatidylcholine (Avanti Polar Lipids, Inc., Cat. 840051P, 1.67%), 1,2-dioleoyl-sn-glycero-3-phospho-L-serine (Avanti Polar Lipids, Inc., Cat. 840035P, 0.33%), and n-dodecane special grade (Wako Pure Chemical Industries, Ltd., 047-21612)/1-octanol reagent special grade (Kanto Chemical Co., Inc., Cat. 31013-08)=10:1 to Filter Plate (Merck Millipore Corporation, Cat. MAIPN4550).
475 μL of 50 mmol/L potassium phosphate buffer (KPB, pH 7.4 or pH 6.5) was added to 25 μL of a DMSO solution containing the compound at a concentration of 20 μmol/L, so that the compound was diluted to a final concentration of 1 μmol/L. 300 μL of the compound solution was added to the lower side (donor side) of PAMPA 96-well plate (Filter Plate (Merck Millipore Corporation, Cat. MAIPN4550)) with an artificial phospholipid membrane being interposed therebetween. 200 μL of 5% DMSO KPB (pH 7.4) was added to the upper side (acceptor side) with the artificial phospholipid membrane being interposed therebetween. A permeation test through an artificial phospholipid membrane was carried out at 25° C. for 4 hours. The compound concentration in the solution in the donor plate and the acceptor plate was measured by LC/MS/MS, and the membrane permeation rate (Pe) of the compound was calculated from the following formula, assuming that C0 is an initial compound concentration in donor solution, t is a test time, A is a membrane filter area=0.3 cm^2, VD is a donor solution amount=300 μL, VA is an acceptor solution amount=200 μL, and CD(t) is a compound concentration in donor solution at time t, CA(t) is a compound concentration in acceptor solution at time t, and Cequilibrium=[CD(t)*VD+CA(t)*VA]/(VD+VA).
475 μL of 50 mmol/L potassium phosphate buffer (KPB, pH 7.4 or pH 6.5) was added to 25 μL of a DMSO solution containing the compound at a concentration of […], so that the compound was diluted to a final concentration of 10 μmol/L. The compound solution was added 300 μL each to the lower side (donor side) of an artificial phospholipid membrane of PAMPA 96-well plate (Filter Plate (Merck Millipore Corporation, Cat. MAIPN4550)). 200 μL of 5% DMSO KPB (pH 7.4) was added to the upper side (acceptor side) with the artificial phospholipid membrane being interposed therebetween. A permeation test through an artificial phospholipid membrane was carried out at 25° C. for 4 hours. The compound concentration in the solution in the donor plate and the acceptor plate was measured by LC/MS/MS, and the membrane permeation rate (Pe) of the compound was calculated from the following formula, assuming that Co is an initial compound concentration in donor solution, t is a test time, A is a membrane filter area=0.3 cm^2, VD is a donor solution amount=300 μL, VA is an acceptor solution amount=200 μL, and CD(t) is a compound concentration in donor solution at time t, CA(t) is a compound concentration in acceptor solution at time t, and Cequilibrium=[CD(t)*VD+CA(t)*VA]/(VD+VA).
The membrane permeability (Pe(10^−6 cm/s)) obtained by this method is described in the following table.
Evaluation standards are as follows.

Pe(10^−6 cm/sec)	Compound
+ (0.01<Pe (10^−6 cm/s)≤0.2)	C[C@@H]1NC(=O)CC[C@@H](C(N)=O)NC(=O)[C@H](CCCNC(=N)N)NC(=O)[C@H](Cc2c[nH]c3ccccc23)NC(=O)[C@@H](CC2CCCCC2)NC(=O)[C@@H]2CCCN2C1=O [8-1] (AP[dCha]WRE-NH2; lactam N-6)
− (0.01≤Pe (10^−6 cm/s))	CC(C)C[C@@H]1NC(=O)[C@@H](C(C)C)NC(=O)[C@H](C)NC(=O)CC[C@@H](C(N)=O)NC(=O)[C@@H](CCC(=O)O)NC(=O)[C@@H](Cc2c[nH]c3ccccc23)NC1=O [8-3] (A[dV]L[dW][dE]E-NH2; lactam N-6)
+ (0.01<Pe (10^−6 cm/s)≤0.2)	CC(=O)N[C@H]1CSSC[C@@H](C(N)=O)NC(=O)[C@@H](CCC(=O)O)NC(=O)[C@@H](Cc2c[nH]c3ccccc23)NC(=O)[C@H](CC(C)C)NC(=O)[C@@H](C(C)C)NC1=O [9-2] (Ac-C[dV]L[dW][dE]C-NH2; disulfide 1-6)
Below the limit	CC(=O)N[C@H]1CSSC[C@@H](C(N)=O)NC(=O)[C@H]([C@@H](C)O)NC(=O)[C@H](CCCCN)NC(=O)[C@@H](Cc2c[nH]c3ccccc23)NC(=O)[C@H](Cc2ccccc2)NC1=O [9-3] (Ac-CF[dW]KTC-NH2; disulfide 1-6)
Below the limit	CCCC[C@@H]1NC(=O)[C@H](CCCCN)NC(=O)[C@H](CC(C)C)NC(=O)[C@H](CC(C)C)NC(=O)[C@@H](NC(C)=O)CSSC[C@@H](C(N)=O)NC(=O)[C@H](Cc2ccccc2)NC(=O)[C@H](C)NC(=O)[C@H](C)NC(=O)[C@@H]2CCCN2C1=O [9-4] (Ac-CLLK[Nle]PAAFC-NH2; disulfide 1-10)
+ (0.01<Pe (10^−6 cm/s)≤0.2)	C[C@@H]1NC(=O)Cn2cc(nn2)C[C@@H](C(N)=O)NC(=O)[C@H](CCCNC(=N)N)NC(=O)[C@H](Cc2c[nH]c3ccccc23)NC(=O)[C@@H](CC2CCCCC2)NC(=O)[C@@H]2CCCN2C1=O [10-1]
− (0.01≤Pe (10^−6 cm/s))	CC(C)C[C@@H]1NC(=O)[C@@H](C(C)C)NC(=O)[C@H](C)NC(=O)Cn2cc(nn2)C[C@@H](C(N)=O)NC(=O)[C@@H](CCC(=O)O)NC(=O)[C@@H](Cc2c[nH]c3ccccc23)NC1=O [10-3]
− (0.01≤Pe (10^−6 cm/s))	C[C@@H]1NC(=O)Cn2cc(nn2)C[C@@H](C(N)=O)NC(=O)[C@H]([C@@H](C)O)NC(=O)[C@H](CCCCN)NC(=O)[C@@H](Cc2c[nH]c3ccccc23)NC(=O)[C@H](Cc2ccccc2)NC1=O [10-4]

Continued, compound first:

Compound	Pe(10^−6 cm/sec)
N=C(N)NCCC[C@@H]1NC(=O)[C@H](Cc2c[nH]c3ccccc23)NC(=O)[C@@H](CC2CCCCC2)NC(=O)[C@@H]2CCCN2C(=O)[C@@H]2CSC(=N2)C2=Cc3ccc(cc3S2)C[C@@H](C(N)=O)NC1=O [2-2]	+++ (0.5<Pe (10^−6 cm/s))
N=C(N)NCCC[C@@H]1NC(=O)[C@H](Cc2c[nH]c3ccccc23)NC(=O)[C@@H](CC2CCCCC2)NC(=O)[C@@H]2CCCN2C(=O)[C@@H]2CSC(=N2)c2cnc3cc(ccc3c2)C[C@@H](C(N)=O)NC1=O [2-4]	+++ (0.5<Pe (10^−6 cm/s))
N=C(N)NCCC[C@@H]1NC(=O)[C@H](Cc2c[nH]c3ccccc23)NC(=O)[C@@H](CC2CCCCC2)NC(=O)[C@@H]2CCCN2C(=O)[C@@H]2CSC(=N2)c2sccc2C[C@@H](C(N)=O)NC1=O [2-17]	+++ (0.5<Pe (10^−6 cm/s))
N=C(N)NCCC[C@@H]1NC(=O)[C@H](Cc2c[nH]c3ccccc23)NC(=O)[C@@H](CC2CCCCC2)NC(=O)[C@@H]2CCCN2C(=O)[C@@H]2CSC(=N2)c2ccc(cn2)C[C@@H](C(N)=O)NC1=O [3-1]	+++ (0.5<Pe (10^−6 cm/s))
N=C(N)NCCC[C@@H]1NC(=O)[C@H](Cc2c[nH]c3ccccc23)NC(=O)[C@@H](CC2CCCCC2)NC(=O)[C@@H]2CCCN2C(=O)[C@@H]2CSC(=N2)C[C@@H](C(N)=O)NC1=O [3-5]	++ (0.2<Pe (10^−6 cm/s)≤0.5)
NC(=O)[C@@H]1Cc2csc(c2)C2=N[C@@H](CCS2)C(=O)N[C@H](Cc2ccc(O)cc2)C(=O)NCC(=O)NCC(=O)N[C@H](Cc2ccccc2)C(=O)N1 [4-2]	+++ (0.5<Pe (10^−6 cm/s))
NC(=O)[C@@H]1Cc2csc(c2)C2=N[C@@H](CS2)C(=O)N[C@H](Cc2ccc(O)cc2)C(=O)NCC(=O)NCC(=O)N[C@H](Cc2ccccc2)C(=O)N1 [4-3]	+++ (0.5<Pe (10^−6 cm/s))
CC(C)C[C@@H]1NC(=O)[C@@H](C(C)C)NC(=O)[C@@H]2CSC(=N2)c2cc(cs2)C[C@@H](C(N)=O)NC(=O)[C@@H](CCC(=O)O)NC(=O)[C@@H](Cc2c[nH]c3ccccc23)NC1=O [4-4]	++ (0.2<Pe (10^−6 cm/s)≤0.5)
C[C@@H](O)[C@@H]1NC(=O)[C@H](CCCCN)NC(=O)[C@@H](Cc2c[nH]c3ccccc23)NC(=O)[C@H](Cc2ccccc2)NC(=O)[C@@H]2CSC(=N2)c2cc(cs2)C[C@@H](C(N)=O)NC1=O [4-6]	+ (0.01<Pe (10^−6 cm/s)≤0.2)
CCCC[C@@H]1NC(=O)[C@H](CCCCN)NC(=O)C(CC(C)C)NC(=O)[C@H](CC(C)C)NC(=O)[C@@H]2CSC(=N2)c2cc(cs2)C[C@@H](C(N)=O)NC(=O)C(Cc2ccccc2)NC(=O)[C@H](C)NC(=O)[C@H](C)NC(=O)[C@@H]2CCCN2C1=O (some centres unmarked) [4-8]	++ (0.2<Pe (10^−6 cm/s)≤0.5)
CCCC[C@@H]1NC(=O)[C@H](CCCCN)NC(=O)C(CC(C)C)NC(=O)[C@H](CC(C)C)NC(=O)[C@@H]2CSC(=N2)c2cc(cs2)C[C@@H](C(N)=O)NC(=O)C(Cc2ccccc2)NC(=O)[C@H](CO)NC(=O)[C@H](C)NC(=O)[C@@H]2CCCN2C1=O (some centres unmarked) [4-9]	+ (0.01<Pe (10^−6 cm/s)≤0.2)
CC(C)C[C@@H]1NC(=O)[C@@H](C(C)C)NC(=O)[C@@H]2CSC(=N2)c2cccc(c2)C[C@@H](C(N)=O)NC(=O)[C@@H](CCC(=O)O)NC(=O)[C@@H](Cc2c[nH]c3ccccc23)NC1=O [5-1] ([dV]L[dW][dE][Phe(3-(4R-CO-2-thiazolinyl))]-NH2; lactam N-5)	+++ (0.5<Pe (10^−6 cm/s))
C[C@@H]1NC(=O)CSC[C@@H](C(N)=O)NC(=O)[C@@H](Cc2ccccc2)NC(=O)CNC(=O)CNC(=O)[C@@H](Cc2ccc(O)cc2)NC1=O [7-2] ({CH2CO}-A[dY]GG[dF]C-NH2; thioether N-6)	+ (0.01<Pe (10^−6 cm/s)≤0.2)
C[C@@H]1NC(=O)CSC[C@@H](C(N)=O)NC(=O)[C@H]([C@@H](C)O)NC(=O)[C@H](CCCCN)NC(=O)[C@@H](Cc2c[nH]c3ccccc23)NC(=O)[C@H](Cc2ccccc2)NC1=O [7-3] ({CH2CO}-AF[dW]KTC-NH2; thioether N-6)	− (0.01≤Pe (10^−6 cm/s))
CC(C)C[C@@H]1NC(=O)[C@@H](C(C)C)NC(=O)[C@H](C)NC(=O)CSC[C@@H](C(N)=O)NC(=O)[C@@H](CCC(=O)O)NC(=O)[C@@H](Cc2c[nH]c3ccccc23)NC1=O [7-4] ({CH2CO}-A[dV]L[dW][dE]C-NH2; thioether N-6)	+ (0.01<Pe (10^−6 cm/s)≤0.2)
CCCC[C@@H]1NC(=O)[C@H](CCCCN)NC(=O)[C@H](CC(C)C)NC(=O)[C@H](CC(C)C)NC(=O)[C@H](C)NC(=O)CSC[C@@H](C(N)=O)NC(=O)[C@H](Cc2ccccc2)NC(=O)[C@H](C)NC(=O)[C@H](C)NC(=O)[C@@H]2CCCN2C1=O [7-5] ({CH2CO}-ALLK[Nle]PAAFC-NH2; thioether N-10)	Below the limit
CCCC[C@@H]1NC(=O)[C@H](CCCCN)NC(=O)[C@H](CC(C)C)NC(=O)[C@H](CC(C)C)NC(=O)[C@H](C)NC(=O)CSC[C@@H](C(N)=O)NC(=O)[C@H](Cc2ccccc2)NC(=O)[C@H](CO)NC(=O)[C@H](C)NC(=O)[C@@H]2CCCN2C1=O [7-6] ({CH2CO}-ALLK[Nle]PASFC-NH2; thioether N-10)	Below the limit
C[C@@H]1NC(=O)CC[C@@H](C(N)=O)NC(=O)[C@@H](Cc2ccccc2)NC(=O)CNC(=O)CNC(=O)[C@@H](Cc2ccc(O)cc2)NC1=O [8-2] (A[dY]GG[dF]E-NH2; lactam N-6)	+ (0.01<Pe (10^−6 cm/s)≤0.2)
